Measured values published in US20110153302A1, “IDENTIFICATION OF DRUG EFFECTS ON SIGNALING PATHWAYS USING INTEGER LINEAR PROGRAMMING” (Massachusetts Institute of Technology, priority 2009, published 2011).
“Also recorded” adds a separate entry of the source.

How the values were obtained:
JNK1/2 kinases = conditions: kinase profiles, ref [32]; cited from earlier work
HepG2 specific topology = experiment: Drug-induced topology alterations: ILP fit of the HepG2 specific topology to drug-induced phosphoprotein data; conditions: for Drug effect on the JNK→c-JUN branch / Drug effect on downstream reactions of the TGFα branch (TGFα→GRB2→SOS→RAS→PI3K and RAS→RAF1→MEK1/2→ERK1/2): reactions removed from HepG2 topology by ILP, Gefitinib 3 uM; for Effect on c-Jun signaling: summary statement in the personalized medicine section
Text: Here, we describe how the Boolean model described in [18] can be reformulated as an ILP. Note that such a transformation was recently performed for a different problem, namely the satisfiability, by. A pathway is defined as a set of reactions i=1, . . . , nr and species j=1, . . . , ns. Each reaction has three corresponding index sets, namely the index set of signaling molecules Ri, inhibitors Ii, and “products” Pi (“product” can also correspond to the phosphorylation level of the protein). These sets are all subsets of the species index set (Ri,Ii,Pi⊂{1, . . . , ns}). Typically, these subsets have very small cardinality (few species), e.g., |Ri|=0,1,2;|Ii|=0,1;|Pi|=1,2;|Ri|+|Ii|=1,2. A reaction takes place if and only if all reagents and no inhibitors are present. If a reaction takes place, all products are formed. Note that reactions without products as well as reactions with neither reagents nor inhibitors will be excluded here.
While typically the set of species is known, the set of reactions is not known. Rather, only a superset of potential reactions is postulated. The goal of the proposed formulation is to find an optimal (in some sense) set of reactions out of such a superset. To that extent binary variables yi are introduced, indicating if a reaction is possible or not (yi=0 connection not present, yi=1 connection present).
A set of experiments is performed, indexed by the superscript k=1, . . . , ne. In each experiment a subset of species is introduced to the system and another subset is excluded from the system. These are summarized by the index sets M^k,1 and M^k,0 respectively (two for each experiment). In the proposed formulation, constants are introduced for all such species, respectively xj^k=1 and xj^k=0. […] In the experiments a third subset of the species is measured (index set M^k,2) and for the remaining species no information is available. In the proposed formulation for each of the experiments and each such species a binary decision variable xj^kε{0,1} is introduced indicating if the species j is present (xj^k=1) or not (xj^k=0) in the experiment k according to the model predictions. […] This has some computational advantages.
In the present study, our ILP formulation was utilized in two different circumstances. For the creation of the cell-type specific pathway using combinations of inhibitors and stimuli our ILP formulation included 27887 constraints and 9732 variables. For each drug case, where the reduced and optimized pathway was utilized, we had 2477 constraints and 947 variables.
For the identification of the drug effects we make use of the second dataset in HepG2s where drugs are applied together with the same set of ligands. In this case, the ILP formulation is being used with the HepG2 specific topology (topology obtained from the previous step) and not the generic map.

HepG2 cells = experiment: Bead-based multiplexed (Luminex xMAP) measurement of 13 key phosphorylation events in cells treated with drugs and ligands; type: cell-based
Method: HepG2 cells were purchased from ATCC (Manassas, Va.), and seeded on 96-well plates coated with collagen type I-coated (BD Biosciences, Franklin Lakes, N.J.) at 30,000 cells/well in DME medium containing 10% Fetal Bovine Serum (FBS). The following morning, cells were starved for 4 hours and treated with inhibitors and/or drugs. Kinase inhibitors were used at concentrations sufficient to inhibit at least 95% the phosphorylation of the nominal target as determined by dose-response assays (presented in [17]). […] was chosen as the nominal target for Lapatinib, Erlotinib, and Gefitinib. The following saturated concentrations were used: p38 (PHA818637, 20 nM), MEK (PD325901, 100 nM) and cMET (JNJ38877605, 1 μM), PI3K (PI-103, 10 μM), Lapatinib at 3 uM [47], Erlotinib at 1 uM [47], Gefitinib at 3 uM [47], and Sorafenib at 3 uM (based on its inhibitory activity on ERK1/2 phosphorylation). Following incubation for 45 minutes with inhibitors and/or drugs cells were treated with saturated levels of 5 ligands: Tumor Necrosis Factor alpha (TNFα) at 100 ng/ml, Interleukin 1 alpha (IL1α) at 10 ng/ml, Insulin (INS) at 2 uM, Transforming Growth Factor (TGFα) at 100 ng/ml, and Hepatocytes Growth Factor (HGF) at 100 ng/ml. Each ligand was added alone or in pairs and cell lysates were collected at 0, 5, and 25 minutes following the cytokine stimulation. The 5 and 25 minutes lysates were mixed together in 1:1 ratio and the mixed lysate was measured as an indicator of the “average early signaling response”. The 5 and 25 minute time points were identified in a preliminary experiment as the optimal time points that maximally captured early phosphorylation activities.
(§1) From each lysate we measured 13 phosphorylation activities that we considered “key phosphorylation events” using a Luminex 200 system (Luminex Corp, Austin, Tex.). The 13-plex phospho-protein bead set from Bio-Rad was used to assay p70S6K (Thr421/Ser424), CREB (Ser133), p38 (Thr180/Tyr182), MEK1 (Ser217/Ser221), JNK (Thr183/Tyr185), HSP27 (Ser78), ERK1/2 (Thr202/Tyr204, Thr185/Tyr187), c-JUN (Ser63), IRS-1 (Ser636/Ser639), IκB-α (Ser32/Ser36), Histone H3 (Ser10), Akt (Ser473), and IR-β (Tyr1146). Data were normalized and plotted using with DataRail. For the construction of the dose response curve in FIG. 3i, HepG2 were starved for 4 hours and then incubated with Gefitinib (from 20 uM down to 27 nM-3 fold dilution) for 45 minutes followed by incubation with IL1α at 10 ng/ml final concentration for 30 minutes. Duplicate lysates were analyzed using the c-JUN (Ser63) beads in the Luminex 200 system.
High-throughput bead-based ELISA-type experiments using xMAP technology (Luminex, Tex., USA) are performed as briefly described in the Materials and Methods section and in [17]. We create two datasets: one for the construction of cell-type specific topology and another for the identification of the mechanisms of drug actions. […] For the purpose of this paper, we refer to “inhibitors” as the compounds for which we know the target and we use them in a concentration capable to block ˜95% of the downstream protein. Conversely, we refer to “drugs” as the compounds for which we assume no a-priori knowledge of their target. For each combination of cytokine and drug/inhibitor we collect cell lysates at 5 and 25 minutes. The two time points are pooled together in 1:1 ratio and the mixed lysates are used as an indicator of the “average early signaling response”. For each treatment we measure 13 protein phosphorylations that we consider “key protein activities” (raw data in FIG. 4). The key phosphorylation signals (listed in Materials and Methods) are chosen based on the availability of the reagents and quality controls performed at the early phases of the experimental setup. […]

c-JUN (Ser63) = experiment: Gefitinib dose response of c-JUN (Ser63) signal in HepG2 after IL1α (FIG. 3i); type: cell-based; conditions: Gefitinib 20 uM down to 27 nM, 45 min, IL1α 10 ng/ml, 30 min, linear fit
Text: as §1

RAF/MEK/ERK pathway = conditions: human tumor cell lines, ref [33]; cited from earlier work
p38α = p38α (Homo sapiens, UniProt Q16539); conditions: refs [32],[45]; cited from earlier work
p38α, sequence (Q16539 whole entry): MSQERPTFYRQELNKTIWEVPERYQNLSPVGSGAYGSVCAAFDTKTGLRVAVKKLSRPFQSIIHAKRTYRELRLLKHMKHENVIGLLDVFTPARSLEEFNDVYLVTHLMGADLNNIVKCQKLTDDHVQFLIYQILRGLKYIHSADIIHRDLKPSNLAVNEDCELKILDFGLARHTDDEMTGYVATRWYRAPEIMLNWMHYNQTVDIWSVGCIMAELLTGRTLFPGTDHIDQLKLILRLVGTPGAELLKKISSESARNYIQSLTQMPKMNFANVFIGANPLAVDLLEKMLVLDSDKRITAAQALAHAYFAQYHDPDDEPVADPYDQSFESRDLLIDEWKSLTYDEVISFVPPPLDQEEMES

Row | SMILES | Affinity for the directly upstream JNK1/2 kinases (JNK1/2 kinases) | Drug effect on the TRAF6→MAP3k7 reaction (HepG2 specific topology; HepG2 topology, ILP, Erlotinib 1 uM) | Drug effect on the JNK→c-JUN branch (HepG2 specific topology; Erlotinib 1 uM, Sorafenib 3 uM) | Drug effect on downstream reactions of the TGFα branch (TGFα→GRB2→SOS→RAS→PI3K and RAS→RAF1→MEK1/2→ERK1/2) (HepG2 specific topology; Lapatinib 3 uM, Erlotinib 1 uM) | Effect on c-Jun signaling (HepG2 specific topology) | IκB-α signals upon IL1α and TNFα stimuli (HepG2 cells; Erlotinib 1 uM, FIG. 4) | Activation of cJUN signal induced by the IL1α stimuli, dose response (c-JUN (Ser63)) | IL1α- and (IL1α+TGFα)-induced cJUN activity (HepG2 cells; Gefitinib 3 uM, IL1α 10 ng/ml, FIG. 3f) | Inhibition of activation of the RAF/MEK/ERK pathway (RAF/MEK/ERK pathway) | Drug effect on the p38 path (HepG2 specific topology; HepG2 topology, ILP, Sorafenib 3 uM) | Drug effect on the RAF→ERK1/2 reaction (HepG2 specific topology; HepG2 topology, network optimization, Sorafenib 3 uM) | HSP27 phosphorylation upon IL1α treatment (HepG2 cells; Sorafenib 3 uM, FIG. 3h) | MEK1 phosphorylation (HepG2 cells; Sorafenib 3 uM, FIG. 3h) | Target affinity to p38α (p38α) | Drug effect on the PI3K→...→AKT branch (HepG2 specific topology; HepG2 topology, ILP, Lapatinib 3 uM) | TGFα induced MEK1/2, ERK1/2, and AKT phosphosignals (HepG2 cells; Lapatinib 3 uM, 45 min before TGFα 100 ng/ml, early response (5 and 25 min), FIG. 3e) | Activation of AKT by the HGF and INS path (HepG2 cells; Lapatinib 3 uM, FIG. 3e)
1 | C#Cc1cccc(Nc2ncnc3cc(OCCOC)c(OCCOC)cc23)c1 [Erlotinib] | no medium or high affinity | shows an effect in the TRAF6→MAP3k7 reaction | has the same effects as Gefitinib; also recorded: removal of the JNK→cJUN reaction | has the same effects as Gefitinib | do not affect c-Jun signaling | inhibited in an IL1α-dependent but TNFα-independent manner | – | – | – | – | – | – | – | – | – | – | –
2 | COc1cc2ncnc(Nc3ccc(F)c(Cl)c3)c2cc1OCCCN1CCOCC1 [Gefitinib] | no medium or high affinity | – | removal of the JNK→c-JUN branch; also recorded: removal of the JNK→cJUN reaction | alters the topology in a very similar pattern as Lapatinib | affects c-Jun signaling as well as EGFR signaling | – | can reduce the activation of cJUN signal; also recorded: does not follow a typical dose-response curve; also recorded: reduces cJUN activation | potent inhibition; also recorded: significant reduction of the cJUN activity; also recorded: previously unknown inhibition of cJUN in the IL1α pathway; also recorded: inhibits signaling downstream the Interleukin-1alpha (IL1α) pathway | – | – | – | – | – | – | – | – | –
3 | CNC(=O)c1cc(Oc2ccc(NC(=O)Nc3ccc(Cl)c(C(F)(F)F)c3)cc2)ccn1 [Sorafenib] | no medium or high affinity | – | blocks the JNK→c-JUN branch; also recorded: removal of the JNK→cJUN reaction | – | – | – | – | – | does not inhibit activation of the RAF/MEK/ERK pathway in all human tumor cell lines | affects the p38 path; also recorded: inhibition of the pathway downstream of p38 | does not remove the RAF→ERK1/2 reaction | complete HSP27 inhibition | reduces but does not block | target affinity | – | – | –
4 | CS(=O)(=O)CCNCc1ccc(-c2ccc3ncnc(Nc4ccc(OCc5cccc(F)c5)c(Cl)c4)c3c2)o1 [Lapatinib] | – | – | – | complete removal of the downstream reactions of the TGFα branch | do not affect c-Jun signaling | – | – | – | – | – | – | – | – | – | not removed | blocks | cannot be blocked
